Source: US11952387B2, “Bicyclic heteroaromatic ring derivative” (priority 2018, dated 2024)

Each molecule was assayed on HRV14 (assay: Inhibitory activity against human rhinovirus infection and replication (quantitative real-time PCR)). Conditions: Human rhinovirus sp., MRC5; 100 nmol/L test compound; MRC-5 cells infected with HRV14 at MOI=0.2; 48 hours; viral load normalized to 18s rRNA; read-out: Percent Inhibition.
Format: cell-based
Experimental: Evaluation of inhibitory activity against human rhinovirus infection and replication (by quantitative real-time PCR)
A required amount of a test compound was weighed off and dissolved in dimethyl sulfoxide (DMSO) to yield a 10 mmol/L stock solution. Next, the stock solution was diluted with a medium for viral infection (minimum essential medium (MEM) supplemented with 2% fetal bovine serum, 5% Tryptose phosphate broth, and 30 mmol/L MgCl2) to prepare 100 nmol/L and 1000 nmol/L of test compound solutions. MRC-5 (human fetal lung fibroblast: ATCC) was suspended at a density of 30000 cells/mL in cell culture medium (MEM supplemented with 10% fetal bovine serum), and 625 μL of the suspension per well was seeded into a 24-well cell culture plate and cultured at 37° C. in 5% CO2. After 72 hours, it was confirmed that the plate had become 80% confluent. The plate was washed with 625 μL of phosphate-buffered physiological saline (Ca/Mg-free; PBS-) once, and 625 μL of the test compound solution prepared just before use was immediately added to the plate. After 30 minutes, the medium was removed followed by addition of 187.5 μL of the test compound solution that had been prepared such that the cells were infected with HRV14 (ATCC) at multiplicity of infection (MOI)=0.2. The cells were then cultured at 35° C. in 5% CO2. After additional 2 hours, 625 μL of the test compound solution prepared just before use was added, and the cells were cultured at 35° C. in 5% CO2. After 48 hours, the cells were washed with 625 μL of PBS- once, and total RNA was extracted from the cells using RNeasy (R) plus kit (Qiagen) according to the manufacturer's instruction. Subsequently, cDNA was synthesized using High-Capacity cDNA Reverse Transcription Kit (Thermo Fisher Scientific). Finally, quantitative real-time PCR was performed in 7500 Fast Real-time PCR system (Life technologies) to measure HRV14 and 18s rRNA. The measurement protocol consisted of the initial denaturation phase at 95° C. for 20 seconds followed by 40 cycles of the denaturation step at 95° C. for 3 seconds and the annealing/elongation step at 60° C. for 30 seconds. The primers used were HRV14 forward primer set forth in SEQ ID NO: 1 and HRV14 reverse primer set forth in SEQ ID NO: 2, and the probe is set forth in SEQ ID NO: 3.
18s rRNA was measured using Eukaryotic 18S rRNA Endogenous Control (Applied Biosystems). According to Equation 1, 18s ribosomal RNA was used as an internal standard to normalize the viral load of HRV14: Viral load of HRV14=The amount of HRV14 in virus-infected cells/the amount of 18s rRNA in virus-infected cells Equation 1
Inhibitory activity of test compounds was calculated as a percent inhibition (%) according to Equation 2: Percent inhibition (%)=[the viral load of HRV in virus-infected cells in the absence of the test compound −the viral load of HRV in virus-infected cells in the presence of the test compound]/[the viral load of HRV in virus-infected cells in the absence of the test compound]×100 Equation 2
The results of using 100 nmol/L test compound solutions were shown in the tables below according to Examples. In the tables, percent inhibition was expressed as follows: percent inhibition >80%: +++, 80%≥percent inhibition >50%: ++, and 50%≥percent inhibition:+.

SMILES	inhibition at 0.1 µM [%]
COc1ccc(-c2c(C)nc3sc(C(C)(C)O)cn23)cc1S(=O)(=O)C[C@H]1CC[C@@H](O)CC1 [Example 1-27]	≤ 50
COc1ccc(-c2c(C)nc3sc(C(C)(C)OC)nn23)cc1S(=O)(=O)N[C@H]1CC[C@H](O)CC1 [Example 1-28]	> 80
COC(C)(C)c1nn2c(-c3ccc(C(F)(F)F)c(S(=O)(=O)N[C@H]4CC[C@H](O)CC4)c3)c(C)nc2s1 [Example 1-29]	> 80
Cc1nc2sc(C3CC3)nn2c1-c1ccc(C(F)(F)F)c(S(=O)(=O)N[C@H]2CC[C@H](O)CC2)c1 [Example 1-30]	> 80
COc1ccc(-c2c(C)nc3sc(C4(C(F)(F)F)CC4)nn23)cc1S(=O)(=O)N[C@H]1CC[C@@H](O)CC1 [Example 1-31]	> 80
Cc1nc2sc(C(C)(C)C)nn2c1-c1ccc(C(F)(F)F)c(S(=O)(=O)N[C@H]2CC[C@H](O)CC2)c1 [Example 1-32]	> 80
Cc1nc2sc(C(C)(C)O)nn2c1-c1ccc(C(F)(F)F)c(S(=O)(=O)NC(C)(C)CO)c1 [Example 1-33]	> 80
COc1ccc(-c2c(C)nc3sc(C(C)(C)O)nn23)cc1S(=O)(=O)C[C@H]1CC[C@@H](O)CC1 [Example 1-34]	50 to 80
COc1ccc(-c2c(C)nc3sc(C4CC4)nn23)cc1S(=O)(=O)NC(C)(C)CO [Example 1-35]	> 80
COc1ccc(-c2c(C)nc3sc(C(C)(C)O)nn23)cc1S(=O)(=O)NC(C)(C)CO [Example 1-36]	50 to 80
COc1ccc(-c2c(C)nc3sc(C(C)(C)O)nn23)cc1S(=O)(=O)C1CC1 [Example 1-37]	50 to 80
COc1ccc(-c2c(C)nc3sc(C(C)(C)O)nn23)cc1S(=O)(=O)CC(C)(C)O [Example 1-38]	> 80
COc1ccc(-c2c(C)nc3sc(C4(C#N)CC4)nn23)cc1S(=O)(=O)NC(C)(C)CO [Example 1-39]	≤ 50
COc1ccc(-c2c(C)nc3sc(C4(C#N)CC4)nn23)cc1S(=O)(=O)C1CC1 [Example 1-40]	≤ 50
COC(=O)C(C)(C)S(=O)(=O)c1cc(-c2c(C)nc3sc(C(C)(C)O)nn23)ccc1OC [Example 1-41]	50 to 80
COc1ccc(-c2c(C)nc3sc(C(C)(C)O)cn23)cc1S(=O)(=O)CC(C)(C)O [Example 1-42]	≤ 50
COc1ccc(-c2c(C)nc3sc(C(C)(C)OC)cn23)cc1S(=O)(=O)N[C@H]1CC[C@@H](O)CC1 [Example 1-43]	> 80
COc1ccc(-c2c(C)nc3sc(C4(O)CCCC4)cn23)cc1S(=O)(=O)N[C@H]1CC[C@@H](O)CC1 [Example 1-44]	≤ 50
COc1ccc(-c2c(C)nc3sc(C4(OC)CCCC4)cn23)cc1S(=O)(=O)N[C@H]1CC[C@@H](O)CC1 [Example 1-45]	> 80
COc1ccc(-c2c(C)nc3sc(C(C)C)cn23)cc1S(=O)(=O)N[C@H]1CC[C@@H](O)CC1 [Example 1-46]	> 80
COc1ccc(-c2c(C)nc3sc(C4(OC)CC4)cn23)cc1S(=O)(=O)N[C@H]1CC[C@@H](O)CC1 [Example 1-47]	50 to 80
COc1ccc(-c2c(C)nc3sc(C4CC4)cn23)cc1S(=O)(=O)N[C@H]1CC[C@@H](O)CC1 [Example 1-48]	50 to 80
COc1ccc(-c2c(C)nc3sc(C(C)(C)C)cn23)cc1S(=O)(=O)N[C@H]1CC[C@@H](O)CC1 [Example 1-49]	> 80
COc1ccc(-c2c(C)nc3sc(C(C)(C)OC)cn23)cc1S(=O)(=O)Nc1ccc(F)cc1 [Example 1-50]	> 80
COc1ccc(-c2c(C)nc3sc(C)cn23)cc1S(=O)(=O)Nc1ccc(F)cc1 [Example 1-51]	50 to 80
COc1ccc(-c2c(C)nc3sccn23)cc1S(=O)(=O)Nc1ccc(F)cc1 [Example 1-52]	≤ 50
COc1ccc(-c2c(C)nc3sc(C(O)(C4CC4)C4CC4)nn23)cc1S(=O)(=O)CC(C)(C)O [Example 1-53]	> 80

SMILES	inhibition at 0.1 µM [%]
COc1ccc(-c2c(C)nc3sc(C(C)(C)O)cn23)cc1S(=O)(=O)N[C@H]1CC[C@@H](OC)CC1 [Example 2-2]	≤ 50
COc1c(F)cc(-c2c(C)nc3sc(C(C)(C)C)cn23)cc1S(=O)(=O)N[C@H]1CC[C@@H](O)CC1 [Example 2-3]	> 80
COc1ccc(-c2c(C)nc3sc(C(C)(C)O)cn23)cc1S(=O)(=O)NC(C)(C)CO [Example 2-4]	≤ 50
Cc1nc2sc(C(C)(C)O)cn2c1-c1ccc(N(C)C)c(S(=O)(=O)N[C@H]2CC[C@@H](O)CC2)c1 [Example 2-5]	≤ 50
Cc1nc2sc(C(C)(C)O)nn2c1-c1ccc(C#N)c(S(=O)(=O)N[C@H]2CC[C@H](O)CC2)c1 [Example 2-6]	≤ 50
Cc1nc2sc(C(C)(C)O)nn2c1-c1ccc(OC(F)(F)F)c(S(=O)(=O)N[C@H]2CC[C@H](O)CC2)c1 [Example 2-7]	> 80
COc1c(F)cc(-c2c(C)nc3sc(C(C)(C)O)nn23)cc1S(=O)(=O)N[C@H]1CC[C@H](O)CC1 [Example 2-8]	> 80
Cc1nc2sc(C(C)(C)O)nn2c1-c1ccc(C(F)(F)F)c(S(=O)(=O)N(C)[C@H]2CC[C@H](O)CC2)c1 [Example 2-9]	> 80
Cc1nc2sc(C(C)(C)O)nn2c1-c1ccc(C(F)(F)F)c(S(=O)(=O)NC23CCC(O)(CC2)CC3)c1 [Example 2-10]	> 80
Cc1nc2sc(C(C)(C)O)nn2c1-c1cnc(C(F)(F)F)c(S(=O)(=O)N[C@H]2CC[C@H](O)CC2)c1 [Example 2-11]	≤ 50
COc1ccc(-c2c(C)nc3sc(C(C)(C)O)nn23)cc1S(=O)(=O)CCO [Example 2-12]	≤ 50
COc1ccc(-c2c(C)nc3sc(C(C)(C)O)nn23)cc1S(C)(=O)=O [Example 2-13]	≤ 50
Cc1nc2sc(C(C)(C)O)nn2c1-c1ccc(C(F)(F)F)c(S(=O)(=O)CCO)c1 [Example 2-14]	≤ 50
Cc1nc2sc(C3CC3)nn2c1-c1ccc(C(F)(F)F)c(S(=O)(=O)CCO)c1 [Example 2-15]	50 to 80
Cc1nc2sc(C(C)(C)O)nn2c1-c1ccc(C(F)(F)F)c(S(=O)(=O)N[C@H]2C[C@H](O)C2)c1 [Example 2-16]	> 80
Cc1nc2sc(C(C)(C)O)nn2c1-c1ccc(C(F)(F)F)c(S(=O)(=O)N[C@H]2C[C@@H](O)C2)c1 [Example 2-17]	> 80
Cc1nc2sc(C(C)(C)O)nn2c1-c1ccc(C(F)(F)F)c(S(=O)(=O)N[C@]2(C)C[C@@H](O)C2)c1 [Example 2-18]	> 80
Cc1nc2sc(C(C)(C)O)nn2c1-c1ccc(C(F)(F)F)c(S(=O)(=O)N[C@]2(C)C[C@H](O)C2)c1 [Example 2-19]	> 80
Cc1nc2sc(C(C)(C)O)nn2c1-c1ccc(C(F)(F)F)c(S(=O)(=O)NC2(CO)CC2)c1 [Example 2-20]	> 80
Cc1nc2sc(C(C)(C)O)nn2c1-c1ccc(C(F)(F)F)c(S(=O)(=O)NCC(C)(C)O)c1 [Example 2-21]	> 80
Cc1nc2sc(C(C)(C)O)nn2c1-c1ccc(C(F)(F)F)c(S(=O)(=O)NC2COC2)c1 [Example 2-22]	> 80
Cc1nc2sc(C(C)(C)O)nn2c1-c1ccc(C(F)(F)F)c(S(=O)(=O)CC2CC(O)C2)c1 (centres unmarked) [Example 2-23]	50 to 80
CC(=O)N1CC(NS(=O)(=O)c2cc(-c3c(C)nc4sc(C(C)(C)O)nn34)ccc2C(F)(F)F)C1 [Example 2-24]	≤ 50
COc1ccc(-c2c(C)nc3sc(C(C)(C)O)nn23)cc1S(=O)(=O)C(C)C [Example 2-25]	≤ 50
Cc1nc2sc(C(C)(C)O)nn2c1-c1ccc(C(F)(F)F)c(S(=O)(=O)CC2(C)COC2)c1 [Example 2-26]	> 80
Cc1nc2sc(C(C)(C)O)nn2c1-c1ccc(C(F)(F)F)c(S(=O)(=O)CC(C)(C)O)c1 [Example 2-27]	> 80
